These results are taken from patent publication US9815833B2, “Pyridine derivative and medical use thereof” (Chengdu Easton Biopharmaceuticals Co., Ltd., priority 2013, dated 2017).

Usually IC50 stands for the point on the concentration scale where inhibition reaches its midpoint. A high value points to lower potency. As usually defined, the Cmax is the highest concentration seen after dosing. As a reminder, the Tmax is the time at which the peak concentration occurs. For orientation: half-life means the time in which the quantity being followed falls by half.

Molecules are shown by their SMILES.

The target in one data set is human FXa (Homo sapiens, UniProt P00742). Put plainly: Human FXa inhibition assay (fluorogenic substrate). The class given is biochemical. The conditions noted are these: human FXa 1 nM, substrate 106.7 μM, 30 minutes at room temperature, pH 8.0. Here is the method:
Inhibitory effects of the compounds of the present invention on human FXa were studied, to measure IC50 values thereof on human FXa.
human FXa enzyme (Sekisui Diagnostics, REF 526);
Fluorogenic substrate for the FXa assay (American diagnostic, Product No. 222F);
Buffer: 20 mM Tris-HCl, 200 mM NaCl, 2.5 mM CaCl2, pH 8.0.
(2) 10 mM of each compound was 5-fold diluted serially with buffer to different concentrations (from 40 μM to 0.00002048 μM);
(3) 6 μL of the above diluted solutions of Step (2) were added into each well of 384-well plate to make a final volume of 60 μL, and the final concentration of the compound ranged from 4 μM to […];
(4) 30 μL of human FXa enzyme (2 nM) was added into each well, with a final concentration of 1 nM;
(5) 24 μL human FXa fluorescent enzyme substrate (266.7 μM) was added into each well, with a final concentration of 106.7 μM;
(6) the plate was gently shaked for 5 minutes and then incubated for 30 minutes at room temperature, with avoidance from light;
(7) fluorescence signal was read at 360/440 nm, the inhibition percentage was measured, and 4 Parameter Logistic Model in Xlfit software was employed to calculate IC50.

Data set [1] is described as follows: Pharmacokinetic studies on healthy rats. To be noted: male, rat, po, SD rats, 10 mg/kg i.g., plasma; for AUC(0-t): read-out: AUC0-24. The class given is in vivo. An excerpt: SD rats were used as test animals, and LC/MS/MS method was applied for measuring the drug concentrations of rats at different time after administrating the compounds of the present invention by gavage, respectively. Pharmacokinetic behaviors of the compounds of the present invention on rats were studied, so as to evaluate the pharmacokinetic characteristics thereof.
SD rats, weighing 180-220 g, male, 40 rats, 5 rats in each group, provided by Chengdu Dashuo Biological Technology Co., Ltd.; Production facility license: SCXK (Chuan) 2008-24. Animals were housed in the animal room after purchased, adaptively observed for at least three days, and used for assays unless they were qualified for the quarantine standard.
3.1 Grouping: the rats were randomly grouped according to Table 3, with no significant difference among the groups;
Rats in each group was administrated by gavage with the corresponding investigational drugs according to Table 3, at 5 min, 10 min, 20 min, 30 min, 1 h, 2 h, 4 h, 6 h, 8 h, 10 h, 12 h, 24 h after administration, 0.5 ml of blood was taken into the vacuum blood-collection tubes containing heparin sodium, and centrifuged at 5,000 rpm to obtain plasma which was stored at −20° C.
50 μL plasma at each time after administration was taken, then 150 μL of acetonitrile was added, which was subjected to vortex at 1500 rpm for 2 minutes. Solution was centrifuged for 15 minutes (3500 r/min), after that 10 μL supernatant was analyzed by HPLC/MS/MS.
The pharmacokinetic behaviors of the investigational compounds were subjected to compartmental model fitting, and DAS 2.0 software was used to calculate the main pharmacokinetic parameters.

In another data set the test system is APTT of healthy mice. Put plainly: Effects on APTT of healthy mice. To be noted: 5 mg/kg i.g.; for APTT (sec): KM mice, blood collected 1 hour after administration, x ± SD, 10 mice per group; for anticoagulant effect (APTT) compared with positive drug Apixaban: mice, 1 h after administration, same dose. The class given is in vivo, KM mice. The text has this:
Test for four coagulation parameters (including prothrombin time (PT), activated partial thromboplastin time (APTT), thrombin time (TT) and fibrinogen (FIB)) belongs to one of clinical inspection items, and is necessary to thrombotic disease inspections or before the surgery. APTT mainly reflects whether the intrinsic coagulation system status is normal or not. Accordingly, the APTT value is used as a detection indicator in this test of the present invention. The anticoagulant effects of the compounds prepared in the Examples of the present invention were evaluated through the effects thereof on APTT of mice.
KM mice, weighing 28-30 g, male, 170 mice, provided by Chengdu Dashuo Biological Technology Co., Ltd.; Production facility license: SCXK (Chuan) 2008-24. Animals were housed in the animal room after purchased, adaptively observed for at least three days, and used for assays unless they were qualified for the quarantine standard.
(1) Grouping: mice were grouped and tested according to Table 1, wherein there were 10 mice in each group.
Mice in each group were administrated with the corresponding investigational drugs (mice in control group were administrated with the normal saline). At 1 hour after administration, blood was collected into 0.5 ml vacuum blood-collection tube containing sodium citrate from mice orbit. APTT values of animals were measured after collecting the blood samples.
Excel was used for statistics, experimental data were expressed as (x±SD), and two-sided T-test method was used to statistically compare the experimental data among multiple groups.

Chain of human FXa (P00742 235-488 limits assumed): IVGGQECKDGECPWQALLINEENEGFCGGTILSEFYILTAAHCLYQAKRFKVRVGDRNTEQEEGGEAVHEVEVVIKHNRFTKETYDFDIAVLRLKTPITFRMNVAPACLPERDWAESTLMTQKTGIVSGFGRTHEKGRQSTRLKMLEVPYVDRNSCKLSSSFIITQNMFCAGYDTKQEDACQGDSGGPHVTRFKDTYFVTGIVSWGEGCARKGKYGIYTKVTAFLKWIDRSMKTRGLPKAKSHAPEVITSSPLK
Chain of human FXa (P00742 41-179 partner limits assumed): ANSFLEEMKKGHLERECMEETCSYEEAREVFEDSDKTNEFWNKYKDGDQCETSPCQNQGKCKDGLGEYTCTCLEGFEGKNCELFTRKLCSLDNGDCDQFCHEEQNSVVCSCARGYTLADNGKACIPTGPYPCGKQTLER

`COc1ccc(-n2nc(C(N)=O)c3c2C(=O)N(c2ccc(N4CCCC4=O)c(C)c2)CC3)cc1` [Example 16, 1-(4-methoxyphenyl)-7-oxo-6-[3-methyl-4-(2-oxo-pyrrolidin-1-yl)phenyl]-4,5,6,7-tetrahydro-1H-pyrazolo[3,4-c]pyridine-3-carboxamide] came in with a concentration for half-maximal inhibition (IC50) against human FXa of 0.023 nM. In data set [1], the peak concentration (Cmax) is 9450 ng/mL, the Tmax is 0.25 h, the half-life is 6.2 h and the AUC(0-t) came to 37700 ng·h/mL. Besides, in the data set with APTT of healthy mice, the “APTT (sec)” value was 29.89 ± 2.72 * * ^ΔΔ sec and the “anticoagulant effect (APTT) compared with positive drug Apixaban” value is given as “significantly better than positive drug Apixaban”.
For the compound `Cc1cc(N2CCc3c(C(N)=O)nn(-c4cc(F)cc(F)c4)c3C2=O)ccc1N1CCCC1=O` [Example 17, 1-(3,5-difluoro-phenyl)-7-oxo-6-[3-methyl-4-(2-oxo-pyrrolidin-1-yl)phenyl]-4,5,6,7-tetrahydro-1H-pyrazolo[3,4-c]pyridine-3-carboxamide], the 50% inhibitory concentration (IC50) against human FXa is 0.015 nM. Besides, in data set [1], the highest concentration (Cmax) is 9670 ng/mL, the Tmax was found to be 0.25 h, the half-life was 6.8 h and the AUC(0-t) was determined as 38600 ng·h/mL. In the data set with APTT of healthy mice, the “APTT (sec)” value is recorded as 30.79 ± 2.91 * * ^ΔΔ sec and the “anticoagulant effect (APTT) compared with positive drug Apixaban” value is “significantly better than positive drug Apixaban”.
With `COc1ccc(-n2nc(C(N)=O)c3c2C(=O)N(c2ccc(N4CCCC4=O)c(C)c2)CC3)cc1F` [Example 18, 1-(3-fluoro-4-methoxyphenyl)-7-oxo-6-[3-methyl-4-(2-oxo-pyrrolidin-1-yl)phenyl]-4,5,6,7-tetrahydro-1H-pyrazolo[3,4-c]pyridine-3-carboxamide], at human FXa, the concentration for half-maximal inhibition (IC50) is 0.091 nM. In addition, in data set [1], the concentration peaked (Cmax) at 8970 ng/mL, the time to peak (Tmax) was 0.25 h, the half-life is 6.8 h and the AUC(0-t) came to 35500 ng·h/mL. Further, in the data set with APTT of healthy mice, the “APTT (sec)” value is 28.96 ± 2.42 * * ^ΔΔ sec and the “anticoagulant effect (APTT) compared with positive drug Apixaban” value is listed as “significantly better than positive drug Apixaban”.
